Assay results from patent US8785488B2 (Exelixis Patent Company LLC, priority 2009, dated 2014).
Structures can show the parent of a compound that is named as a salt.

molecular target: T1, human TGR5 (h-TGR5) (Homo sapiens, UniProt Q8TDU6); assay: TGR5/CRE-Luciferiase Assay (HEK 293 hTGR5/CRE-Luc cells); format: cell-based; conditions: HEK 293 hTGR5/CRE-Luc cells, 6 hours incubation, luciferase activity; Table 2; read-out: h-TGR5CRE-Luc EC50 (CRE-Luc)
T1 construct: expressed in transfected cells
T1 sequence (Q8TDU6 1-330): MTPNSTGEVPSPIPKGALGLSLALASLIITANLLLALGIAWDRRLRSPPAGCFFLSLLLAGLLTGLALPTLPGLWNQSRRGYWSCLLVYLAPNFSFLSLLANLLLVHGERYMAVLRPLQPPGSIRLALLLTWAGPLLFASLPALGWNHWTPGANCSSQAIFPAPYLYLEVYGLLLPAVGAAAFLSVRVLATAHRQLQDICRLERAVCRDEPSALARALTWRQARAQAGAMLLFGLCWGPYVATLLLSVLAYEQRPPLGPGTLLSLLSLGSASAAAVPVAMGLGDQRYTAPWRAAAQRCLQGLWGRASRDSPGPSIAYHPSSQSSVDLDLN
Summary of the method: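 HEK293 cells stably carrying hTGR5 and a CRE-luciferase reporter were exposed to serially diluted compounds (diluted in DMEM with 5% DMSO) for 6 h. Cells were then lysed in luciferase buffer, luminescence was read, and EC50 values were derived from dose-response curves.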

| EC50 [µM] | Compound |
| --- | --- |
| 1 to 10 | COc1ccc(Cc2nnc(SCc3ccc(F)cc3Cl)n2-c2ccc(F)cc2)cc1 [Example 28, hydrochloride] |

same assay, conditions: h-TGR5 CRE-Luc EC50, Table 1; read-out: CRE-Luc (EC50)

| Compound | EC50 [µM] |
| --- | --- |
| CC(C)(c1ccc(Cl)c(Cl)c1)c1cnc(SCc2ccc(F)cc2Cl)n1-c1ccc(F)c(OCC(=O)O)c1 [{[5-(2-{[(2-chloro-4-fluorophenyl)methyl]thio}-5-[1-(3,4-dichlorophenyl)-1-methylethyl]-1H-imidazol-1-yl)-2-fluorophenyl]oxy}acetic acid] | 1 to 10 |
| CC(C)(c1ccc(Cl)c(Cl)c1)c1cnc(COCc2ccc(F)cc2Cl)n1-c1ccc(F)cc1 [2-({[(2-chloro-4-fluorophenyl)methyl]oxy}methyl)-5-[1-(3,4-dichlorophenyl)-1-methylethyl]-1-(4-fluorophenyl)-1H-imidazole] | 1 to 10 |
| CC(C)(c1ccc(Cl)c(Cl)c1)c1cnc(CS(=O)(=O)c2ccc(F)cc2Cl)n1-c1ccc(F)cc1 [2-{[(2-chloro-4-fluorophenyl)sulfonyl]methyl}-5-[1-(3,4-dichlorophenyl)-1-methylethyl]-1-(4-fluorophenyl)-1H-imidazole] | 1 to 10 |
| COc1ccc(-c2cnc(SCc3ccc(F)cc3Cl)n2-c2ccc(F)cc2)cc1OC [5-[3,4-bis(methyloxy)phenyl]-2-{[(2-chloro-4-fluorophenyl)methyl]thio}-1-(4-fluorophenyl)-1H-imidazole] | 1 to 10 |
| CC(C)(c1ccc(Cl)c(Cl)c1)c1cnc(SCc2c(F)cccc2Cl)n1-c1ccc(F)cc1C(F)(F)F [2-{[(2-chloro-6-fluorophenyl)methyl]thio}-5-[1-(3,4-dichlorophenyl)-1-methylethyl]-1-[4-fluoro-2-(trifluoromethyl)phenyl]-1H-imidazole] | 1 to 10 |
| CCN(CC)CCOc1ccc(CSc2ncc(C(C)(C)c3ccc(Cl)c(Cl)c3)n2-c2ccc(F)cc2)cc1-c1nnn[nH]1 [2-({4-[({5-[1-(3,4-dichlorophenyl)-1-methylethyl]-1-(4-fluorophenyl)-1H-imidazol-2-yl}thio)methyl]-2-(1H-tetrazol-5-yl)phenyl}oxy)-N,N-diethylethanamine] | 0.1 to 1 |
| CC(C)(c1ccc(Cl)c(Cl)c1)c1cnc(SCc2c(F)cccc2C(=O)O)n1-c1ccc(F)cc1 [2-[({5-[1-(3,4-dichlorophenyl)-1-methylethyl]-1-(4-fluorophenyl)-1H-imidazol-2-yl}thio)methyl]-3-fluorobenzoic acid] | 0.1 to 1 |
| CC(C)(c1ccc(Cl)c(Cl)c1)c1cnc(COc2ccc3ncccc3c2)n1-c1ccc(F)cc1 [6-[({5-[1-(3,4-dichlorophenyl)-1-methylethyl]-1-(4-fluorophenyl)-1H-imidazol-2-yl}methyl)oxy]quinoline] | 0.1 to 1 |
| CC(C)(c1ccc(Cl)c(Cl)c1)c1cnc(SCc2c(F)cccc2Cl)n1-c1ccc(F)cc1Cl [1-(2-chloro-4-fluorophenyl)-2-{[(2-chloro-6-fluorophenyl)methyl]thio}-5-[1-(3,4-dichlorophenyl)-1-methylethyl]-1H-imidazole] | 0.1 to 1 |
| CC(C)(c1ccc(Cl)c(Cl)c1)c1cnc(SCc2ccc(C#N)c(Cl)c2)n1-c1ccc(F)cc1 [2-chloro-4-[({5-[1-(3,4-dichlorophenyl)-1-methylethyl]-1-(4-fluorophenyl)-1H-imidazol-2-yl}thio)methyl]benzonitrile] | 0.1 to 1 |
| CC(C)(c1ccc(F)c(F)c1)c1cnc(SCc2c(F)cc(C(=O)O)cc2Cl)n1-c1ccc(F)cc1 [3-chloro-4-[({5-[1-(3,4-difluorophenyl)-1-methylethyl]-1-(4-fluorophenyl)-1H-imidazol-2-yl}thio)methyl]-5-fluorobenzoic acid] | 0.1 to 1 |
| CC(C)(c1ccc(Cl)c(Cl)c1)c1cnc(SCc2ccc(F)c(CO)c2)n1-c1ccc(F)cc1 [{5-[({5-[1-(3,4-dichlorophenyl)-1-methylethyl]-1-(4-fluorophenyl)-1H-imidazol-2-yl}thio)methyl]-2-fluorophenyl}methanol] | 0.1 to 1 |
| CC(C)(c1ccc(Cl)c(Cl)c1)c1cnc(SCc2ccc(C(=O)NCCN3CCOCC3)cc2F)n1-c1ccc(F)cc1 [4-[({5-[1-(3,4-dichlorophenyl)-1-methylethyl]-1-(4-fluorophenyl)-1H-imidazol-2-yl}thio)methyl]-3-fluoro-N-(2-morpholin-4-ylethyl)benzamide] | 0.1 to 1 |
| CC(C)(c1ccc(Cl)c(Cl)c1)c1cnc(SCc2ccc(F)cc2Cl)n1-c1ccc(F)c(C(F)(F)F)c1 [2-{[(2-chloro-4-fluorophenyl)methyl]thio}-5-[1-(3,4-dichlorophenyl)-1-methylethyl]-1-[4-fluoro-3-(trifluoromethyl)phenyl]-1H-imidazole] | 1 to 10 |
| CN(C)CCOc1ccc(C(C)(C)c2cnc(SCc3c(F)cccc3Cl)n2-c2ccc(F)cc2)cc1 [2-[(4-{1-[2-{[(2-chloro-6-fluorophenyl)methyl]thio}-1-(4-fluorophenyl)-1H-imidazol-5-yl]-1-methylethyl}phenyl)oxy]-N,N-dimethylethanamine] | 1 to 10 |

Now from value to molecule:

| EC50 [µM] | Compound |
| --- | --- |
| 0.1 to 1 | CC(C)(C)OC(=O)N1CCC(CSc2ncc(C(C)(C)c3ccc(Cl)c(Cl)c3)n2-c2ccc(F)cc2)C1 (stereo not drawn) [1,1-dimethylethyl 3-[({5-[1-(3,4-dichlorophenyl)-1-methylethyl]-1-(4-fluorophenyl)-1H-imidazol-2-yl}thio)methyl]pyrrolidine-1-carboxylate] |
| 0.1 to 1 | CC(C)(c1ccc(Cl)c(Cl)c1)c1cnc(SCc2ccc(F)c(NC(=N)N)c2)n1-c1ccc(F)cc1 [1-{5-[({5-[1-(3,4-dichlorophenyl)-1-methylethyl]-1-(4-fluorophenyl)-1H-imidazol-2-yl}thio)methyl]-2-fluorophenyl}guanidine] |
| < 0.1 | COc1c(Cl)cc(C(C)(C)c2cnc(SCc3ccc(S(N)(=O)=O)cc3F)n2-c2ccc(F)cc2)cc1Cl [4-({[5-{1-[3,5-dichloro-4-(methyloxy)phenyl]-1-methylethyl}-1-(4-fluorophenyl)-1H-imidazol-2-yl]thio}methyl)-3-fluorobenzenesulfonamide] |
| < 0.1 | CC(C)(c1ccc(Cl)c(Cl)c1)c1cnc(SCC2CCN(c3nnn[nH]3)CC2)n1-c1ccc(F)c(F)c1 [4-[({5-[1-(3,4-dichlorophenyl)-1-methylethyl]-1-(3,4-difluorophenyl)-1H-imidazol-2-yl}thio)methyl]-1-(1H-tetrazol-5-yl)piperidine] |
| 0.1 to 1 | CC(C)(c1ccc(Cl)c(Cl)c1)c1cnc(S(=O)(=O)Cc2c(F)cccc2Cl)n1-c1ccc(F)cc1F [2-{[(2-chloro-6-fluorophenyl)methyl]sulfonyl}-5-[1-(3,4-dichlorophenyl)-1-methylethyl]-1-(2,4-difluorophenyl)-1H-imidazole] |
| 0.1 to 1 | COc1ccc(C(C)(C)c2cnc(SCc3ccc(F)c(C(=O)O)c3)n2-c2ccc(F)cc2)cc1Cl [5-({[5-{1-[3-chloro-4-(methyloxy)phenyl]-1-methylethyl}-1-(4-fluorophenyl)-1H-imidazol-2-yl]thio}methyl)-2-fluorobenzoic acid] |
| 0.1 to 1 | CC(C)(O)COc1ccc(C(C)(C)c2cnc(SCc3ccc(F)cc3Cl)n2-c2ccc(F)cc2)cc1Cl [1-[(2-chloro-4-{1-[2-{[(2-chloro-4-fluorophenyl)methyl]thio}-1-(4-fluorophenyl)-1H-imidazol-5-yl]-1-methylethyl}phenyl)oxy]-2-methylpropan-2-ol] |
| 0.1 to 1 | CC(C)(c1ccc(Cl)c(Cl)c1)c1cnc(SCc2ccc(F)cc2Cl)n1-c1ccc(F)c(F)c1 [2-{[(2-chloro-4-fluorophenyl)methyl]thio}-5-[1-(3,4-dichlorophenyl)-1-methylethyl]-1-(3,4-difluorophenyl)-1H-imidazole] |
